The values below come from paper PMC3532596, “Cell-based optimization of novel benzamides as potential antimalarial leads” (Bioorganic & Medicinal Chemistry Letters, 2009).

One data set relates to P. falciparum 3D7 strain. Nature of the data set: cell-based P. falciparum proliferation assay, 3D7 strain. The conditions noted are these: Plasmodium falciparum; chloroquine sensitive 3D7 strain; means of two experiments. From the text:
(§1) Currently there is a need for novel chemical scaffolds with different mechanisms of action, since most of the current approved antimalarial drugs belong to the aminoquinoline family. In order to find new chemical scaffolds, we initiated a compound screen using our in-house kinase inhibitor collection and subjected them to a cell-based of Plasmodium falciparum proliferation assay[5,6] We envisioned that the hits arising from this screen can be rapidly optimized by leveraging our past experiences with these compounds series in alternative target-classes/indications. Furthermore, we thought that it would be prudent to remove the human kinase activity early on during the compound optimization phase to negate the possibility of toxicity arising from host-related off-target activities (Scheme 1).

Data set [1] is described as follows: snapshot PK in mice, single oral dose. It is filed as in vivo. As to conditions: mice balb/c, 20 mg/kg orally, PEG300/D5W 3:1 solution, free base; for AUC(0-t) / Cmax at 5 h / Tmax at 5 h: mouse, in vivo, po. As to the method: Mice were dosed a single dose of 20 mg/kg orally and their exposure levels were monitored over a period of 5 h and results are summarized in Table 6.[11]
[11] Snapshot PK is developed and used by GNF pharmacology group as a rapid pharmacokinetic screening approach. The pharmacokinetic parameters of the compounds are studied in a single mode of administration (generally PO arm) over a period of 5 h. The study is carried out on two animals and the samples are pooled together at each time point. This high throughput approach offers exposure levels with reasonable confidence without committing to extensive resources. For details, see: Liu, B.; Chang, J.; Gordon, W. P.; Isbell, J.; Zhou, Yi.; Tuntland, T. Drug Discovery Today2008, 13, 360–367.

For a further data set, the system named is P. falciparum W2 strain. Nature of the data set: cell-based P. falciparum proliferation assay, W2 strain. On the set-up: species or system Plasmodium falciparum.
From the text: as §1
One important aspect of antimalarial drug discovery is to identify agents that are active against the drug-resistant parasites. […] While most of these resistance phenotypes are due to point mutations in the drug target, the W2 strain also contains an amplification of the P. falciparum multidrug resistance transporter.[10]

As a reminder, the EC50 is the concentration needed to bring the measured effect to its halfway point. `CCCNC(=O)c1cc(N2CCC(N3CCCC3)CC2)cc(C(F)(F)F)c1` [Compound 4] showed an EC50 in the data set on P. falciparum 3D7 strain of 6480 nM.
Same read-out and setting: the value for `O=C(Nc1ccncn1)c1cc(N2CCC(N3CCCC3)CC2)cc(C(F)(F)F)c1` [Compound 5] was 2160 nM.
Consider `O=C(Nc1ccccc1Cl)c1cc(N2CCC(N3CCCC3)CC2)cc(C(F)(F)F)c1` [Compound 6], for which the 50% effective concentration (EC50) in the data set with P. falciparum 3D7 strain amounted to 1720 nM.
On the same count and under the same terms, the value for `O=C(Nc1ccc(Cl)cc1)c1cc(N2CCC(N3CCCC3)CC2)cc(C(F)(F)F)c1` [Compound 7] was 114 nM.
For orientation: AUC(0-t) means exposure summed from dosing to a finite time, without extrapolation to infinity. Read a high AUC(0-t) as more exposure. As usually defined, the Cmax is the peak of the concentration-time curve. For orientation: Tmax means the time from dosing to the highest level. Consider `O=C(Nc1cccc(Cl)c1)c1cc(N2CCC(N3CCCC3)CC2)cc(C(F)(F)F)c1` [Compound 8], for which, in data set [1], the “AUC(0–5h)/dose” value is 5.31 (min ug/mL)/(mg/kg), the AUC(0-t) came out at 3.92 µM·h, the peak level (Cmax at 5 h) was 1360 nM and the time to peak (Tmax) at 5 h was 1 h. The half-maximal effective concentration (EC50) in the data set with P. falciparum W2 strain (Plasmodium falciparum, W2, read-out: P. falciparum W2 strain EC50) was 888 nM. In addition, the “shift in potency between 3D7 and W2” value in the data set with P. falciparum W2 strain (W2 vs 3D7) was about 6 fold. In the data set on P. falciparum 3D7 strain, this compound yielded an EC50 of 134 nM.
For `N#Cc1cccc(NC(=O)c2cc(N3CCC(N4CCCC4)CC3)cc(C(F)(F)F)c2)c1` [Compound 9], the concentration giving a half-maximal response (EC50) with P. falciparum 3D7 strain turned out to be 146 nM.
Same read-out and setting: the same measure for `O=C(Nc1cccc(C(F)(F)F)c1)c1cc(N2CCC(N3CCCC3)CC2)cc(C(F)(F)F)c1` [Compound 10]: 174 nM.
On the same count and under the same terms, the value for `O=C(Nc1ccc(Cl)c(Cl)c1)c1cc(N2CCC(N3CCCC3)CC2)cc(C(F)(F)F)c1` [Compound 11] was 54 nM; that for `O=C(Nc1ccc(Br)c(Cl)c1)c1cc(N2CCC(N3CCCC3)CC2)cc(C(F)(F)F)c1` [Compound 12] was 98 nM.
For `O=C(Nc1cc(Cl)cc(Cl)c1)c1cc(N2CCC(N3CCCC3)CC2)cc(C(F)(F)F)c1` [Compound 13], in data set [1], the “AUC(0–5h)/dose” value is on record as 7.01 (min ug/mL)/(mg/kg), the exposure AUC(0-t) came out at 4.81 µM·h, the Cmax at 5 h is 1640 nM and the Tmax at 5 h was 5 h. This compound also had an EC50 in the data set with P. falciparum 3D7 strain of 48 nM.
In the same order, the values of `O=C(Nc1cc(N2CCC(N3CCCC3)CC2)cc(C(F)(F)F)c1)c1cccc(C(F)(F)F)c1` [Compound 14] are 6.94 (min ug/mL)/(mg/kg), 4.77 µM·h, 1170 nM, 3 h and 201 nM.
The compound `N#Cc1cccc(C(=O)Nc2cc(N3CCC(N4CCCC4)CC3)cc(C(F)(F)F)c2)c1` [Compound 15] gave an EC50 in the data set on P. falciparum 3D7 strain of 402 nM.
Compound `O=S(=O)(Nc1cc(N2CCC(N3CCCC3)CC2)cc(C(F)(F)F)c1)c1cccc(C(F)(F)F)c1` [Compound 16] had an EC50 in the data set with P. falciparum 3D7 strain of 8250 nM.
`CN(C(=O)c1cc(N2CCC(N3CCCC3)CC2)cc(C(F)(F)F)c1)c1cccc(Cl)c1` [Compound 17] yielded an EC50 with P. falciparum 3D7 strain of 4680 nM.
On the same count and under the same terms, the same measure for `O=C(Nc1cccc(C(F)(F)F)c1)Nc1cc(N2CCC(N3CCCC3)CC2)cc(C(F)(F)F)c1` [Compound 18]: 452 nM; for `O=C(Nc1cccc(Cl)c1)Nc1cc(N2CCC(N3CCCC3)CC2)cc(C(F)(F)F)c1` [Compound 19]: 328 nM.
